Consider 13 compounds from patent publication US8383139B2 (Bayer CropScience AG, priority 2008, dated 2013).

The nature of series [1]: log P by HPLC on reversed-phase columns (C 18), EEC Directive 79/831 Annex V.A8. To be noted: reversed-phase C18 HPLC column, pH 2.3, [a] HPLC, acid region pH 2.3, 0.1% aqueous phosphoric acid and acetonitrile; read-out: log p. It is filed as physicochemical.
For series [2], the system named is Uromyces appendiculatus. As to the kind of experiment: Uromyces test (beans)/protective. The class given is in vivo. To be noted: 240 h, 100 ppm active substance, protective, evaluation 10 days after inoculation, read-out: degree of effectiveness. The procedure:
(§1) • Solvents: 24.5 parts by weight of acetone • 24.5 parts by weight of dimethylacetamide • Emulsifier: 1 part by weight of alkylaryl polyglycol ether (polyoxyethylene (16) tristearylphenyl ether)
(§2) To prepare a suitable active substance composition, 1 part by weight of active substance is mixed with the given amounts of solvents and emulsifier and the concentrate is diluted to the desired concentration using water.
For the testing of protective effectiveness, young plants are sprayed with the active substance composition in the application rate given. After the spray coating has been dried on, the plants are inoculated with an aqueous suspension of the spores of the bean rust pathogen Uromyces appendiculatus and then remain in an incubation chamber at approximately 20° C. and 100% relative humidity for 1 day.
The plants are then placed in a greenhouse at approximately 21° C. and a relative humidity of approximately 90%.
Evaluation is carried out 10 days after the inoculation. In this connection, 0% means a degree of effectiveness corresponding to that of the control, while a degree of effectiveness of 100% means that no infestation is observed.

The subject of series [3] is Sphaerotheca fuliginea. As to the kind of experiment: Sphaerotheca test (cucumber)/protective. The class given is in vivo. As to conditions: Podosphaera fuliginea, 168 h, 500 ppm active substance, protective, evaluation 7 days after inoculation, read-out: degree of effectiveness. The procedure: • Solvents: 49 parts by weight of N,N-dimethylformamide • Emulsifier: 1 part by weight of alkylaryl polyglycol ether (polyoxyethylene (16) tristearylphenyl ether) To prepare a suitable active substance composition, 1 part by weight of active substance is mixed with the given amounts of solvents and emulsifier and the concentrate is diluted to the desired concentration using water. For the testing of protective effectiveness, young cucumber plants are sprayed with the active substance composition in the application rate given. One day after the treatment, the plants are inoculated with a suspension of spores of Sphaerotheca fuliginea. Subsequently, the plants are placed in a greenhouse at 70% relative humidity and at a temperature of 23° C. Evaluation is carried out 7 days after the inoculation. In this connection, 0% means a degree of effectiveness corresponding to that of the control, while a degree of effectiveness of 100% means that no infestation is observed.

The subject of series [4] is Puccinia triticina. As to the kind of experiment: Puccinia triticina test (wheat)/protective. To be noted: 192 h, 500 ppm active substance, protective, evaluation 8 days after inoculation, read-out: degree of effectiveness. The class given is in vivo. The procedure:
• Solvent: 50 parts by weight of N,N-dimethylacetamide • Emulsifier: 1 part by weight of alkylaryl polyglycol ether (polyoxyethylene (16) tristearylphenyl ether) To prepare a suitable active substance composition, 1 part by weight of active substance is mixed with the given amounts of solvent and emulsifier and the concentrate is diluted to the desired concentration using water. For the testing of protective effectiveness, young plants are sprayed with the active substance composition in the application rate given. After the spray coating has been dried on, the plants are sprayed with spores with a suspension of spores of Puccinia triticina. The plants remain in an incubation chamber at 20° C. and 100% relative humidity for 48 hours. The plants are placed in a greenhouse at a temperature of approximately 20° C. and a relative humidity of approximately 80%. Evaluation is carried out 8 days after the inoculation. In this connection, 0% means a degree of effectiveness corresponding to that of the control, while a degree of effectiveness of 100% means that no infestation is observed.

Series [5] relates to Septoria tritici. As to the kind of experiment: Septoria tritici test (wheat)/protective. The class given is in vivo. To be noted: Zymoseptoria tritici, 504 h, 500 ppm active substance, protective, evaluation 21 days after inoculation, read-out: degree of effectiveness. The protocol:
• Solvent: 50 parts by weight of N,N-dimethylacetamide • Emulsifier: 1 part by weight of alkylaryl polyglycol ether (polyoxyethylene (16) tristearylphenyl ether) To prepare a suitable active substance composition, 1 part by weight of active substance is mixed with the given amounts of solvent and emulsifier and the concentrate is diluted to the desired concentration using water. For the testing of protective effectiveness, young plants are sprayed with the active substance composition at the application rate given. After the spray coating has dried on, the plants are sprayed with a suspension of spores of Septoria tritici. The plants remain in an incubation chamber at 20° C. and 100% relative humidity for 48 hours. The plants are afterwards placed under a transparent hood at 15° C. and 100% relative humidity for a further 60 hours. The plants are placed in a greenhouse at a temperature of approximately 15° C. and a relative humidity of 80%. Evaluation is carried out 21 days after the inoculation. In this connection, 0% means a degree of effectiveness corresponding to that of the control, while a degree of effectiveness of 100% means that no infestation is observed.

Series [6] has as its system Alternaria solani. As to the kind of experiment: Alternaria test (tomato)/protective. It is filed as in vivo. To be noted: 72 h, 100 ppm active substance, protective, evaluation 3 days after inoculation, read-out: degree of effectiveness. The procedure: as §1, §2
For the testing of protective effectiveness, young plants are sprayed with the active substance composition in the application rate given. After the spray coating has been dried on, the plants are inoculated with an aqueous suspension of spores of Alternaria solani. The plants are then placed in an incubation chamber at approximately 20° C. and 100% relative humidity.
Evaluation is carried out 3 days after the inoculation. In this connection, 0% means a degree of effectiveness corresponding to that of the control, while a degree of effectiveness of 100% means that no infestation is observed.

`Cc1cc(Oc2nc(Cc3ccc(Cl)cc3)ns2)c(Cl)cc1N=CN1CCCCC1` [Example 4, 5-chloro-4-{[3-(4-chlorobenzyl)-1,2,4-thiadiazol-5-yl]oxy}-2-methyl-N-(piperidin-1-ylmethylidene)aniline]: the chromatographic logP in series [1] is 2.53. Also, the pest or weed control at 100 ppm in series [2] is at least 70%. Besides, the pest or weed control at 500 ppm in series [3], in series [4] and in series [5] was at least 70% each time.
`Cc1cc(Oc2nc(Cc3ccc(Cl)cc3Cl)ns2)c(C)cc1N=CN(C)C(C)C` [Example 12, N′-(4-{[3-(2,4-dichlorobenzyl)-1,2,4-thiadiazol-5-yl]oxy}-2,5-dimethylphenyl)-N-methyl-N-(propan-2-yl)imidoformamide]: in series [1], the chromatographic logP was determined as 2.24. In series [2], the pest or weed control at 100 ppm is at least 70%. Further, the pest or weed control at 500 ppm in series [3], in series [4] and in series [5] was at least 70% throughout.
As to `CCN(C)C=Nc1cc(C)c(Oc2nc(Cc3cc(Br)ccc3C)ns2)cc1C` [Example 14, N′-(4-{[3-(5-bromo-2-methylbenzyl)-1,2,4-thiadiazol-5-yl]oxy}-2,5-dimethylphenyl)-N-ethyl-N-methylimidoformamide], the chromatographic logP in series [1] was determined as 2.28. Further, the pest or weed control at 100 ppm in series [2] is at least 70%. Further, the pest or weed control at 500 ppm in series [3], in series [4] and in series [5] was at least 70% each time.
In the case of `Cc1cc(Oc2nc(C(C)c3ccc(Cl)cc3)ns2)c(Cl)cc1N=CN(C)C(C)C` (stereo not drawn) [Example 22, N′-[5-chloro-4-({3-[1-(4-chlorophenyl)ethyl]-1,2,4-thiadiazol-5-yl}oxy)-2-methylphenyl]-N-methyl-N-(propan-2-yl)imidoformamide], the chromatographic logP in series [1] is 2.52. Moreover, the pest or weed control at 100 ppm in series [6] and in series [2] was at least 70% in each case. Further, the pest or weed control at 500 ppm in series [4] is at least 70%.
As to `Cc1cc(Oc2nc(C(C)(C)c3ccc(Cl)cc3)ns2)c(C)cc1N=CN(C)C(C)C` [Example 27, N′-[4-({3-[2-(4-chlorophenyl)propan-2-yl]-1,2,4-thiadiazol-5-yl}oxy)-2,5-dimethylphenyl]-N-methyl-N-(propan-2-yl)imidoformamide], the chromatographic logP in series [1] was found to be 2.71. Also, the pest or weed control at 100 ppm in series [6] and in series [2] was at least 70% throughout. Further, the pest or weed control at 500 ppm in series [3] was at least 70%.
As for `Cc1cc(Oc2nc(C(C)(C)c3ccc(Cl)cc3)ns2)c(Cl)cc1N=CN1CCCCC1` [Example 29, 5-chloro-4-({3-[2-(4-chlorophenyl)propan-2-yl]-1,2,4-thiadiazol-5-yl}oxy)-2-methyl-N-(piperidin-1-ylmethylidene)aniline], in series [1], the chromatographic logP worked out at 2.96. In series [6], the pest or weed control at 100 ppm is at least 70%. Besides, the pest or weed control at 500 ppm in series [3], in series [4] and in series [5] was at least 70% throughout.
On to `Cc1cc(Oc2nc(Cc3cccc(Cl)c3)ns2)c(C)cc1N=CN1CCCCC1` [Example 34, 4-{[3-(3-chlorobenzyl)-1,2,4-thiadiazol-5-yl]oxy}-2,5-dimethyl-N-(piperidin-1-ylmethylidene)aniline], for which the chromatographic logP in series [1] was 2.13. Besides, the pest or weed control at 100 ppm in series [2] is at least 70%. Further, the pest or weed control at 500 ppm in series [3], in series [4] and in series [5] was at least 70% each time.
With `Cc1cc(Oc2nc(C3(c4ccc(Cl)cc4)CC3)ns2)c(C)cc1N=CN1CCCCC1` [Example 38, 4-({3-[1-(4-chlorophenyl)cyclopropyl]-1,2,4-thiadiazol-5-yl}oxy)-2,5-dimethyl-N-(piperidin-1-ylmethylidene)aniline], the chromatographic logP in series [1] came to 2.6. The pest or weed control at 100 ppm in series [6] was at least 70%. Moreover, the pest or weed control at 500 ppm in series [3], in series [4] and in series [5] was at least 70% each time.
As to `Cc1cc(Oc2nc(C3(c4ccc(Cl)cc4)CC3)ns2)c(C)cc1N=CN(C)C(C)C` [Example 39, N′-[4-({3-[1-(4-chlorophenyl)cyclopropyl]-1,2,4-thiadiazol-5-yl}oxy)-2,5-dimethylphenyl]-N-methyl-N-(propan-2-yl)imidoformamide], in series [1], the chromatographic logP was 2.57. Moreover, the pest or weed control at 100 ppm in series [6] is at least 70%. Further, the pest or weed control at 500 ppm in series [3], in series [4] and in series [5] was at least 70% in each case.
`Cc1cc(Oc2nc(Cc3ccccc3C(F)(F)F)ns2)c(C)cc1N=CN1CCCCC1` [Example 43, 2,5-dimethyl-N-(piperidin-1-ylmethylidene)-4-({3-[2-(trifluoromethyl)benzyl]-1,2,4-thiadiazol-5-yl}oxy)aniline]: the chromatographic logP in series [1] came to 2.15. In addition, the pest or weed control at 100 ppm in series [6] and in series [2] was at least 70% each time. Also, the pest or weed control at 500 ppm in series [3] and in series [4] was at least 70% throughout.
With `Cc1cc(Oc2nc(C3(c4ccc(Cl)cc4)CC3)ns2)c(Cl)cc1N=CN1CCCCC1` [Example 44, 5-chloro-4-({3-[1-(4-chlorophenyl)cyclopropyl]-1,2,4-thiadiazol-5-yl}oxy)-2-methyl-N-(piperidin-1-ylmethylidene)aniline], in series [1], the chromatographic logP turned out to be 2.76. Besides, in series [6], the pest or weed control at 100 ppm was at least 70%. For the same compound, the pest or weed control at 500 ppm in series [3], in series [4] and in series [5] was at least 70% each time.
As to `Cc1cc(Oc2nc(Cc3ccc4c(c3)OCO4)ns2)c(C)cc1N=CN1CCCCC1` [Example 45, 4-{[3-(1,3-benzodioxol-5-ylmethyl)-1,2,4-thiadiazol-5-yl]oxy}-2,5-dimethyl-N-(piperidin-1-ylmethylidene)aniline], the chromatographic logP in series [1] was found to be 1.84. Moreover, the pest or weed control at 100 ppm in series [6] is at least 70%. The pest or weed control at 500 ppm in series [3], in series [4] and in series [5] was at least 70% throughout.
Regarding `CCN(C)C=Nc1cc(C)c(Oc2nc(Cc3ccc4c(c3)OCO4)ns2)cc1C` [Example 46, N′-(4-{[3-(1,3-benzodioxol-5-ylmethyl)-1,2,4-thiadiazol-5-yl]oxy}-2,5-dimethylphenyl)-N-ethyl-N-methylimidoformamide], the chromatographic logP in series [1] came to 1.65. Moreover, the pest or weed control at 100 ppm in series [6] was at least 70%. Also, the pest or weed control at 500 ppm in series [3], in series [4] and in series [5] was at least 70% throughout.
